# Measurements reported in US12030908B2, “Antimicrobial compounds, compositions, and uses thereof” (Lakewood Amedex, Inc., priority 2017, dated 2024).
# Values joined by “and” are separate entries in the source; they are usually repeats but may differ in a detail not shown here. Equal values may be shown once. “Also recorded” adds a separate entry of the source.
# What was measured:
# Haemophilus influenzae = assay: MIC at pH 3.5, CLSI, Mueller-Hinton broth; type: cell-based; settings: 5 isolates
# [1] = test system: Aspergillus fumigatus (ATCC13073); assay: Neutropenic lung infection model in mice, lung fungal burden and mortality (Example 24); type: in vivo, BALB/c mice
# Procedure: Neutropenic, BALB/c female mice, all of which were from 6 to 8 weeks of age, were infected intranasally with Aspergillus fumigatus (ATCC13073) at inoculum strengths of ˜1×10^6 conidia/animal (Part A) and ˜1×10^4 conidia/animal (Part B). Twenty four hours after infection, animals were treated by aerosol route with vehicle and Nu-8 (10% solution) for one, two, three, and five days. Two hours following treatment, groups of mice were terminated on days 1, 3, and 5, and lungs were collected to determine fungal load. A similar procedure was followed at inoculum strengths of ˜1×10^3 conidia/animal (Part C) and ˜1×10^2 conidia/animal (Part D).
# This experiment was performed in four parts: Part A (infection with 1×10^6 conidia/animal), Part B (infection with 1×10^4 conidia/animal), Part C (infection with 1×10^3 conidia/animal), and Part D (infection with 1×10^2 conidia/animal). The mice were separated into cohorts in accordance with Table 13 (Part A), Table 14 (Part B), Table 15 (Part C), and Table 16 (Part D).
# On day −4 (four days before the date of infection), each mouse was dosed with a single intraperitoneal injection of cyclophosphamide equivalent to 150 mg/kg and returned to its cage. On day −1 (one day before infection) each mouse received a dose equivalent to 100 mg/kg of cyclophosphamide. Neutropenia was confirmed with differential leukocyte count on day 0.
# One week before infection, an aliquot from the glycerol stocks of Aspergillus fumigatus (ATCC13073) was taken and grown on Potato Dextrose Agar (PDA) plates for seven days in an incubator at 25° C. After seven days, conidia were collected by scraping the colonies from the PDA plate with a sterile loop and washing the surface of the plate with sterile distilled water. The conidial suspension was collected into a sterile tube and filtered through 10 layers of sterile cheese (muslin) cloth/Whatman filter paper to remove hyphal fragments from the spore suspension. The optical density of the filtered suspension was adjusted to an equivalent of ˜1×10^8 conidia/ml. The inoculum was serially diluted in normal saline and viability was checked by hemocytometer.
# Animals were divided into different groups as specified in the experimental design (Tables 13-16). Infections were conducted in a biological safety cabinet, with appropriate personnel protection. Mice were placed into an induction chamber and anesthesia was induced by exposing the animals to 3%-5% Isoflurane in an oxygen flow set at approximately 1 liter per minute (LPM). Once the animals were in a sufficiently deep plane of anesthesia, they were removed and infected. Infection was done by injection of 0.02 ml (containing ˜1×10^8 CFU/ml for Part A, ˜1×10^6 CFU/ml for Part B, ˜1×10^5 CFU/ml for Part C, and ˜1×10^4 CFU/ml for Part D). 10 μl was instilled into each nostril of the anesthetized animal (˜2×10^6 CFU/animal for Part A, ˜2×10^4 CFU/animal for Part B, ˜2×10^3 CFU/animal for Part C, ˜2×10^2 CFU/animal for Part D) using a 10 μl pipette. A gentle shaking/mixing of inoculum between two animals was followed for uniform distribution.
# The vehicle used for the test compound was saline (0.9% NaCl adjusted to pH 3.5 with citric acid). To make 10% solution, 15 g Nu-8 was weighed and dissolved in 145 ml of the saline and the pH of the solution was adjusted to 3.5 with citric acid (0.1 M) in a final volume of 150 ml.
# Treatment began twenty four hours after infection. Test formulations were administered by aerosol route with nose only apparatus connected to a nebulizer (Omron Ne-C28 Compressor Nebulizer with a volume capacity of 15 ml, Particle size 3 μm, Nebulization rate: 0.5 ml/min and Aerosol output rate: 0.09 ml/min). Test formulations were placed into the nebulizer fluid cup; animals were placed in the nose-only apparatus, and the entire system was placed inside a Class II Biosafety Cabinet. […]
# [2] = test system: Acinetobacter baumannii (ATCC 19606); assay: Clinical signs in the Acinetobacter baumannii lung infection model (Example 25); type: in vivo, BALB/c mice; settings: treated groups vs control mice
# Excerpt: There was a >3 Log10) CFU/g lung decrease following treatment for 5 days when compared to the vehicle on day 1.
smiles,measurement,setting,value
"CCCCOP(=O)(O)OC[C@H]1O[C@@H](n2ccc(N)nc2=O)C[C@@H]1OP(=O)(O)OCCCC [Nu-8, sodium ((2R,3S,5R)-5-(4-amino-2-oxopyrimidin-1(2H)-yl)-3-((butoxyoxidophosphor-yl)oxy)tetrahydrofuran-2-yl)methyl butyl phosphate]",Nu-8 MIC (mg/mL) at pH 3.5,Haemophilus influenzae,4.69-9.38 mg/mL
same,Log10 CFU/g lung,"[1]; Part A, 1×10^6 conidia/animal, 10% aerosol single dose, individual mice",6.16 Log10 CFU/g lung and 5.71 Log10 CFU/g lung and 4.51 Log10 CFU/g lung and 5.41 Log10 CFU/g lung and 5.14 Log10 CFU/g lung and 5.76 Log10 CFU/g lung
same,% Mortality,"[1]; Part A, 10% aerosol, 3 doses, once daily for 3 days, day 3",50% and 50 [day 3] %
same,Log10 CFU/g lung,"[1]; Part A, 10% aerosol, 3 doses, once daily for 3 days, individual surviving mice",4.96 Log10 CFU/g lung and 5.48 Log10 CFU/g lung and 3.23 Log10 CFU/g lung
same,Mean ± SD (Log10 CFU/g lung),"[1]; Part A, 10% aerosol, 3 doses, once daily for 3 days, n = 3",4.56 ± 1.18 Log10 CFU/g lung
same,Log10 CFU/g lung,"[1]; Part A, 10% aerosol, 5 doses, once daily for 5 days, individual surviving mice",4.28 Log10 CFU/g lung and 4.06 Log10 CFU/g lung
same,Mean (Log10 CFU/g lung),"[1]; Part A, 10% aerosol, 5 doses, once daily for 5 days, n = 2",4.17 (n = 2) Log10 CFU/g lung
same,efficacy vs day 1 control and day 3 vehicle controls,"[1]; Part A, day 3 and day 5",marked efficacy
same,efficacy vs vehicle control,"[1]; Part A, single dose (day 1), p>0.05",did not show significant efficacy
same,mean fungal count,"[1]; Part A, treated with Nu-8 (10%) for three days, day 3",4.56 log10 spores/g lung
same,mean fungal count,"[1]; Part A, treatment with Nu-8 (10%), day 5",4.17 log10 spores/g lung
same,Mean ± SD (Log10 spores/g lung),"[1]; Part B, 1×10^4 conidia/animal, 10% aerosol single dose (Table 20 group 3), terminated day 3",4.41±0.29 Log10 spores/g lung
same,Log10 spores/g lung,"[1]; Part B, 1×10^4 conidia/animal, 10% aerosol single dose, terminated day 3, individual mice",3.99 Log10 spores/g lung and 4.72 Log10 spores/g lung and 4.51 Log10 spores/g lung and 4.83 Log10 spores/g lung and 4.23 Log10 spores/g lung and 4.45 Log10 spores/g lung and 4.14 Log10 spores/g lung and 4.34 Log10 spores/g lung
same,Mean ± SD (Log10 spores/g lung),"[1]; Part B, 10% aerosol, 3 doses, once daily for 3 days",4.31±0.29 Log10 spores/g lung
same,Log10 spores/g lung,"[1]; Part B, 10% aerosol, 3 doses, once daily for 3 days, individual mice",4.29 Log10 spores/g lung and 4.45 Log10 spores/g lung and 3.93 Log10 spores/g lung and 4.28 Log10 spores/g lung and 4.34 Log10 spores/g lung and 4.87 Log10 spores/g lung and 4.24 Log10 spores/g lung and 4.03 Log10 spores/g lung
same,Mean ± SD (Log10 spores/g lung),"[1]; Part C, 1×10^3 conidia/animal, 10% aerosol, 3 doses, once daily for 3 days",3.65±0.50 Log10 spores/g lung
same,Log10 spores/g lung,"[1]; Part C, 1×10^3 conidia/animal, 10% aerosol, 3 doses, once daily for 3 days, individual mice",4.30 Log10 spores/g lung and 3.67 Log10 spores/g lung and 3.46 Log10 spores/g lung and 4.05 Log10 spores/g lung and 3.54 Log10 spores/g lung and 2.85 Log10 spores/g lung
same,Mean ± SD (Log10 spores/g lung),"[1]; Part D, 1×10^2 conidia/animal, 10% aerosol, 5 doses, once daily for 5 days",2.49±0.16 Log10 spores/g lung
same,Log10 spores/g lung,"[1]; Part D, 1×10^2 conidia/animal, 10% aerosol, 5 doses, once daily for 5 days, individual mice",2.71 Log10 spores/g lung and 2.23 Log10 spores/g lung and 2.50 Log10 spores/g lung and 2.52 Log10 spores/g lung and 2.44 Log10 spores/g lung and 2.56 Log10 spores/g lung
same,"piloerection, loss of grooming and respiratory symptoms",[2],"decreased piloerection, nasal discharge and gasping symptoms; also recorded: a marked decrease was observed in treated groups"
